According to patent US7258878B2, “Anti-microbial composition and methods of use thereof” (Kimberly-Clark Worldwide, Inc., priority 2004, dated 2007):
Like-named read-outs stand apart in the source and are kept apart here.

Experiments:
[1] = test system: S. aureus (ATCC 6538; Gram positive bacteria); assay: Zone of inhibition test against S. aureus; type: cell-based, Staphylococcus aureus; conditions: for zone of inhibition at 1000 µg/mL / zone of inhibition at 10000 µg/mL: Staphylococcus aureus
Procedure: (§1) Natural compounds were evaluated for anti-microbial activity using the zone of inhibition test (ASTM E214901). The activity against five types of microorganisms: Staphylococcus aureus, Pseudomonas aeruginosa, Escherichia coli, Aspergillis niger and Candida albicans, was evaluated. These microorganisms represent gram positive and gram negative bacteria, fungi and yeast.
(§2) The compounds were tested for activity against E. coli (ATCC 8739; Gram negative bacteria), S. aureus (ATCC 6538; Gram positive bacteria), P. aeruginosa (ATCC 9027; Gram negative bacteria), C. albicans (ATCC 10231; yeast) and A niger (ATCC 16404; fungus) at 1 and 10 mg/ml concentrations by using the zone of inhibition method along with triclosan as a positive control.
(§3) The following natural compounds were tested for their anti-fungal properties: eucalyptol, cineole (SIGMA C-8144); gallic acid, 3,4,5-trihydroxybenzoic acid (SIGMA G-7384); methyl jasmonate, 95% (Aldrich 39270-7); and naringin: >95%, made from citrus fruit (SIGMA N-1376). A DMSO/water (75/25 by volume) mixture was used as the carrying solvent for each compound tested. The compounds were tested at 1 and 10 mg/ml concentrations by using the zone of inhibition method along with triclosan as a positive control.
(§4) Microorganism cultures of 10^5 cfu (colony forming units)/ml in a 1×PBS (phosphate buffered saline) solution were used. One ml of the solution was plated on a trypticase soy agar plate (TSA) and allowed to grow at 35° C. for four hours. 4 mm diameter wells were then punched in each TSA plate and 100 μl of each compound being tested was added to these wells. The plates were incubated overnight at 35° C. Lawn clearing was measured the next day as an indicator of antimicrobial activity.

[2] = test system: P. aeruginosa (ATCC 9027; Gram negative bacteria); assay: Zone of inhibition test against P. aeruginosa; type: cell-based, Pseudomonas aeruginosa; conditions: for zone of inhibition at 1000 µg/mL / zone of inhibition at 10000 µg/mL: Pseudomonas aeruginosa
Procedure: as §1, §2, §3, §4

[3] = test system: E. coli (ATCC 8739; Gram negative bacteria); assay: Zone of inhibition test against E. coli; type: cell-based, Escherichia coli; conditions: for zone of inhibition at 1000 µg/mL / zone of inhibition at 10000 µg/mL: Escherichia coli
Procedure: as §1, §2, §3, §4

[4] = test system: C. albicans (ATCC 10231; yeast); assay: Zone of inhibition test against C. albicans; type: cell-based, Candida albicans; conditions: for zone of inhibition at 1000 µg/mL / zone of inhibition at 10000 µg/mL: Candida albicans; for Selective inhibition of C. albicans (conclusion in words): zone of inhibition, five organisms tested, 1 and 10 mg/ml
Procedure: as §1, §2, §3, §4

[5] = test system: A niger (ATCC 16404; fungus); assay: Zone of inhibition test against A. niger; type: cell-based, Aspergillis niger; conditions: for zone of inhibition at 1000 µg/mL / zone of inhibition at 10000 µg/mL: Aspergillus niger
Procedure: as §1, §2, §3, §4

[6] = test system: Lactobacillus acidophilus (ATCC 11975); assay: Zone of inhibition test against Lactobacillus acidophilus; type: cell-based; conditions: sample size 100 μl; for Zone of Inhibition: duplicate
Procedure: as §4
Five of these compounds were tested against Lactobacillus acidophilus (ATCC 11975). None of the compounds tested had antimicrobial activity against lactobacilli, a microorganism normally found in humans, specifically in the vagina. Due to their ability to derive lactic acid from glucose, these bacteria create an acidic environment that inhibits growth of many bacterial species that can lead to urogenital infections. Lactobacillus is generally harmless to humans, rarely inciting harmful infections or diseases. Thus, these compounds can be effectively utilized to develop products to address infections arising from Candida, Aspergillus and related species without destroying the normal balance of microbial species found in human gastrointestinal tract.
Gallic acid, 3,4,5-trihydroxybenzoic acid (SIGMA G-7384); eucalyptol, cineole (SIGMA C-8144); naringin: >95%, made from citrus fruit (SIGMA N-1376), and methyl jasmonate, 95% (Aldrich 39270-7) were tested in two concentrations (1 and 10 mg/ml) in DMSO:water (75:25) along with positive control (chlorhexidine 5 mg/ml in 75:25 DMSO:water) and a negative control (75:25 DMSO:water). All tests were conducted in duplicate in a zone of inhibition study (as described in Example 1).

[7] = ATCC6538, concentration 1 mg/ml, 100 μl per well, DMSO/water 75/25, read-out: Zone of inhibition S. aureus
[8] = ATCC6538, concentration 10 mg/ml, 100 μl per well, DMSO/water 75/25
[9] = ATCC9027, concentration 1 mg/ml, 100 μl per well, DMSO/water 75/25, read-out: Zone of inhibition P. aeruginosa
[10] = ATCC9027, concentration 10 mg/ml, 100 μl per well, DMSO/water 75/25
[11] = ATCC8739, concentration 1 mg/ml, 100 μl per well, DMSO/water 75/25, read-out: Zone of inhibition E. coli
[12] = ATCC8739, concentration 10 mg/ml, 100 μl per well, DMSO/water 75/25
[13] = ATCC10231, concentration 1 mg/ml, 100 μl per well, DMSO/water 75/25, read-out: Zone of inhibition C. albicans
[14] = ATCC10231, concentration 10 mg/ml, 100 μl per well, DMSO/water 75/25
[15] = ATCC16404, concentration 1 mg/ml, 100 μl per well, DMSO/water 75/25, read-out: Zone of inhibition A. niger
[16] = ATCC16404, concentration 10 mg/ml, 100 μl per well, DMSO/water 75/25
[17] = 1 mg/ml in DMSO:water 75:25, inoculum 5.8 × 10^5 CFU/ml
[18] = 10 mg/ml in DMSO:water 75:25, inoculum 5.8 × 10^5 CFU/ml
[19] = concentration 1 mg/ml, 100 μl per well, DMSO/water 75/25
[20] = concentration 10 mg/ml, 100 μl per well, DMSO/water 75/25

SMILES	zone of inhibition at 1000 µg/mL [1, 7]	zone of inhibition at 10000 µg/mL [1, 8]	zone of inhibition at 1000 µg/mL [2, 9]	zone of inhibition at 10000 µg/mL [2, 10]	zone of inhibition at 1000 µg/mL [3, 11]	zone of inhibition at 10000 µg/mL [3, 12]	zone of inhibition at 1000 µg/mL [4, 13]	zone of inhibition at 10000 µg/mL [4, 14]	Selective inhibition of C. albicans (conclusion in words) [4]	zone of inhibition at 1000 µg/mL [5, 15]	zone of inhibition at 10000 µg/mL [5, 16]	Zone of Inhibition [6, 17]	Zone of Inhibition [6, 18]	Zone of inhibition S. aureus [1, 19]	Zone of inhibition S. aureus [1, 20]	Zone of inhibition P. aeruginosa [2, 19]	Zone of inhibition P. aeruginosa [2, 20]	Zone of inhibition E. coli [3, 19]	Zone of inhibition E. coli [3, 20]	Zone of inhibition C. albicans [4, 19]	other results
CC12CCC(CC1)C(C)(C)O2 [Eucalyptol, 1,3,3-Trimethyl-2-oxabicyclo[2,2,2]-octane]	0 mm	0 mm	0 mm	0 mm	0 mm	0 mm	3 mm	3 mm	selective inhibitors of C. albicans with no effect on the other four organisms tested	0 mm	0 mm	None	None	–	–	–	–	–	–	–	–
C[C@@H]1O[C@@H](O[C@H]2[C@H](Oc3cc(O)c4c(c3)OC(c3ccc(O)cc3)CC4=O)O[C@H](CO)[C@@H](O)[C@@H]2O)[C@H](O)[C@H](O)[C@H]1O (stereo partly drawn) [Naringin, 7-[[2-O-(6-Deoxy-α-L-mannopyrano-syl)-β-D-glucopyranosyl]oxy]-2,3-dihydro-5-hydroxy-2-(4-hydroxyphenyl)-4H-1-benzopyran-4-one]	–	–	–	–	–	–	–	–	selective inhibitors of C. albicans with no effect on the other four organisms tested	–	–	None	None	0 mm	0 mm	0 mm	0 mm	0 mm	0 mm	3 mm	Zone of inhibition C. albicans [4, 20]: 3.5 mm; Zone of inhibition A. niger [5, 19]: 0 mm; Zone of inhibition A. niger [5, 20]: 0 mm
Oc1cc(Cl)ccc1Oc1ccc(Cl)cc1Cl [Triclosan, triclosan, reference compound]	–	–	–	–	–	–	–	–	–	–	–	–	–	–	–	–	–	–	–	–	zone of inhibition at 1000 µg/mL ([1]; ATCC6538, read-out: Zone of inhibition S. aureus): 10 mm; zone of inhibition at 1000 µg/mL ([2]; ATCC9027, read-out: Zone of inhibition P. aeruginosa): 0 mm; zone of inhibition at 1000 µg/mL ([3]; ATCC8739, read-out: Zone of inhibition E. coli): 11 mm; zone of inhibition at 1000 µg/mL ([4]; ATCC10231, read-out: Zone of inhibition C. albicans): 8.5 mm; zone of inhibition at 1000 µg/mL ([5]; ATCC16404, read-out: Zone of inhibition A. niger): 10 mm
O=C(O)c1cc(O)c(O)c(O)c1 [Gallic acid, 3,4,5-trihydroxybenzoic acid]	0 mm	0 mm	0 mm	0 mm	0 mm	0 mm	5 mm	4 mm	selective inhibitors of C. albicans with no effect on the other four organisms tested	0 mm	0 mm	None	None	–	–	–	–	–	–	–	–
CC/C=C\CC1C(=O)CCC1CC(=O)OC (centres unmarked) [Methyl jasmonate, methyl jasmonate]	–	–	–	–	–	–	–	–	selectively inhibit both C. albicans and A. niger	–	–	None	None	0 mm	2 mm	0 mm	0 mm	0 mm	0 mm	0 mm	Zone of inhibition C. albicans [4, 20]: 7.5 mm; Zone of inhibition A. niger [5, 19]: 0 mm; Zone of inhibition A. niger [5, 20]: 5 mm; Selective inhibition of A. niger (conclusion in words) ([5]; zone of inhibition, five organisms tested, 1 and 10 mg/ml): selectively inhibit both C. albicans and A. niger
[H]/N=C(\N/C(=N/[H])NCCCCCCNC(=N)NC(=N)Nc1ccc(Cl)cc1)Nc1ccc(Cl)cc1 [Positive control, chlorhexidine, reference compound]	–	–	–	–	–	–	–	–	–	–	–	–	–	–	–	–	–	–	–	–	zone of inhibition at 5000 µg/mL ([6]; Lactobacillus acidophilus, ATCC11975, positive control, chlorhexidine 5 mg/ml in 75:25 DMSO:water, inoculum 5.8 × 10^5 CFU/ml): 6 mm
